Measurements published in paper PMC10522709, “Rational design and characterization of cell-selective antimicrobial peptides based on a bioactive peptide from Crocodylus siamensis hemoglobin” (Scientific Reports, 2023).
Ends that are not written are not given here.

Columns and labels:
[1] = test system: Klebsiella pneumoniae (ATCC 27736); format: cell-based; conditions: ATCC 27736, 18 h
Description: (§1) Broth microdilution assays were performed as reported previously. In short, the bacteria including Escherichia coli (ATCC 25922), Klebsiella pneumoniae (ATCC 27736), Pseudomonas aeruginosa (ATCC 27853), Bacillus subtilis (ATCC 6633), Staphylococcus aureus (ATCC 25923) and Staphylococcus epidermidis (ATCC 12228) were grown in Nutrient broth to mid-log phase at 37 °C. The bacterial suspension (50 μL, concentration of 1 × 10^6 CFU/mL) was loaded into a well with serially diluted peptide (50 µL, final concentrations ranging from 0–200 μg/mL) in a sterile 96-well plate and incubated at 37 °C for 18 h. The optical density (OD) at 600 nm was measured using a microplate reader (ALLSHENG, Zhejiang, China) in order to determine the growth of the bacteria. The inhibition was estimated using the formula; %inhibition=OD600ofcontrol-OD600ofsample/OD600ofcontrol-OD600ofblank×100 where minimal inhibitory concentration (MIC) is defined as the minimum concentration that inhibited 90% of bacterial growth.

[2] = test system: Staphylococcus epidermidis (ATCC 12228); format: cell-based; conditions: ATCC 12228, 18 h
Description: as §1

[3] = test system: Staphylococcus aureus (ATCC 25923); format: cell-based; conditions: ATCC 25923, 18 h
Description: as §1

[4] = test system: Bacillus subtilis (ATCC 6633); format: cell-based; conditions: ATCC 6633, 18 h
Description: as §1

[5] = test system: Pseudomonas aeruginosa (ATCC 27853); format: cell-based; conditions: ATCC 27853, 18 h
Description: as §1

[6] = test system: Escherichia coli (ATCC 25922); format: cell-based; conditions: ATCC 25922, 18 h
Description: as §1

[7] = test system: human keratinocyte cells (HaCaT); format: cell-based; conditions: 24 h
Description: (§2) Human peripheral blood mononuclear cells (PBMC), African green monkey kidney cells (Vero), human keratinocyte cells (HaCaT) and mouse preadipocytes (3T3-L1) were used to evaluate the cytotoxicity of peptides by the MTT assay. PBMCs were isolated using Ficoll medium (GE Healthcare, Uppsala, Sweden) as described by Jangpromma et al.[28]. The PBMCs were then cultured in RPMI 1640, while Vero, HaCaT and 3T3-L1 cells were cultured in DMEM. All culture mediums were supplemented with 10% heat-inactivated fetal bovine serum (FBS) and 1% antibiotic:antimycotic (Gibco, USA). The cells were cultured at 37 °C with 5% CO2/95% relative humidity. After that, PBMC (2 × 10^6 cells/well), Vero (1 × 10^4 cells/well), HaCaT (1 × 10^4 cells/well) and 3T3-L1 (1 × 10^4 cells/well) were individually seeded into 96-well plate and cultured at 37 °C overnight. Next, two-fold serially diluted peptides (3.13–200 μg/mL) were added to the cell culture. After incubation in 5% (v/v) CO2 incubator for 24 h, the medium culture was removed and MTT solution ([…] final concentration in fresh medium culture) was added to the cells and incubated for 30 min. Thereafter, the medium was removed and DMSO (100 µL) was added to each well to dissolve the formazan crystals. The optical density at 570 nm was determined using a microplate reader (ALLSHENG, Zhejiang, China). The cytotoxicity of IL15.3 against Vero, HaCaT and 3T3-L1 cells in the absence of FBS was also measured by the MTT assay to confirm the peptide is not sequestered by proteins in the serum causing artificially low cytotoxicity against eukaryotic cells.
(§3) Cell viability was determined using the equation: %cellviability=OD570ofsample/OD570ofuntreatedcontrol×100
(§4) GraphPad Prism8 (San Diego, CA, USA) was used to calculate IC50 values using a non-linear regression model.

[8] = test system: human peripheral blood mononuclear cells (PBMC); format: cell-based; conditions: 24 h
Description: as §2, §3, §4

[9] = test system: E. coli (ATCC25922); assay: Time-killing kinetics assay; format: cell-based, Escherichia coli
Description: The time-killing kinetics of peptide was determined as described previously by Yaraksa et al.[16] In short, E. coli (ATCC25922) and S. epidermidis (ATCC12228) cells grown overnight were diluted in the Nutrient broth to a concentration of 1 × 10^6 CFU/mL. The diluted bacterial suspension (50 µL) was incubated with the peptide solution (50 µL, final concentration = 1 × MIC or 2 × MIC) at 37 °C. 10 µL of the mixture was taken at regular time intervals (0, 15, 30, 60, 180, 360, 540 and 720 min for 1 × MIC and 0, 30, 60, 180, 360, 720, 1440, 2160 and 2880 min for 2 × MIC), diluted and cultured on nutrient agar plates for 24 h. Bacterial cells were then counted and a graph of the log CFU/mL against incubation time was plotted to evaluate the rate at which peptides kill bacterial cells.

IKHWKKVWKHAKKVL [IL15.3]
MIC [1]: 10 µg/mL | MIC [2]: 9 µg/mL | MIC [3]: 12 µg/mL | MIC [4]: 8 µg/mL | MIC [5]: 10 µg/mL | MIC [6]: 4 µg/mL | IC50 HaCaT [7]: >200 µg/mL | IC50 PBMC [8]: >200 µg/mL | time to inhibit the growth kinetic rate ([9]; 1 × MIC, 37 °C, 1 × 10^6 CFU/mL, colony count): ≤ 60 min | time to completely stop growth ([9]; 1 × MIC, 37 °C, colony count): 180 min | time to begin to inhibit growth kinetic rate ([9]; 2 × MIC, 37 °C, colony count): ≤ 30 min | time to fully kill the cells ([9]; 2 × MIC, 37 °C, colony count): ≤ 180 min | regrowth of cells ([9]; 2 × MIC, after 48 h): did not allow the cells to regrow
